Reference: patent publication US20080275085A1, “Piperidine derivative and use thereof” (priority 2007, published 2008)
Counter-ions that a name gives are not always drawn.

Tests used:
[1] = molecular target: T1, substance P receptor (Homo sapiens, UniProt P25103); experiment: Radioligand receptor binding inhibitory activity (125I-BHSP binding, receptor from IM-9 cells); conditions: receptor from human lymphoblast cells (IM-9); radioligand 125I-BHSP; 25° C., 30 min
T1 construct: The receptor was prepared from human lymphoblast cells (IM-9); endogenous in cells; host or cells: IM-9 human lymphoblast cells (membrane fraction, 100,000xG precipitate)
T1 sequence (P25103 whole entry): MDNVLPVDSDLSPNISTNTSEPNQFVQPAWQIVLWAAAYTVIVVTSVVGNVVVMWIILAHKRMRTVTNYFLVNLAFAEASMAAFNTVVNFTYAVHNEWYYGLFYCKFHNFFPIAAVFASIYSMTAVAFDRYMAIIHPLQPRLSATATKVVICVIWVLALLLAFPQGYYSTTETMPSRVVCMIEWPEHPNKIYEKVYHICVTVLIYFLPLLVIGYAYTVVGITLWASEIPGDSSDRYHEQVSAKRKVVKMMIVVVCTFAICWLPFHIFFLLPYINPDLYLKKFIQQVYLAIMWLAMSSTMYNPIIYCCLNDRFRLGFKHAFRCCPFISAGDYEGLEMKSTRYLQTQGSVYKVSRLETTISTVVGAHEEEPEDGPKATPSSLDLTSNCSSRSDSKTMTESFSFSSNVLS
Method: Radioligand Receptor Binding Inhibitory Activity (Binding Inhibitory Activity Using Receptor from Human Lymphoblast Cells (IM-9))
The method of M. A. Cascieri et al., “Molecular Pharmacology, vol. 42, p. 458 (1992)” was modified and used. The receptor was prepared from human lymphoblast cells (IM-9).
IM-9 cells (2×10^5 cells/mL) were inoculated and incubated for 3 days, which was then subjected to centrifugation for 10 min. at 500×G to give cell pellets. The obtained pellets were washed with PBS (GIBCO), disrupted in buffer A (50 mM tris.hydrochloric acid buffer (pH 7.4) containing 120 mM sodium chloride, 5 mM potassium chloride, 2 μg/mL chymostatin, 40 μg/mL bacitracin, 40 μg/mL APMSF, 1 mM ethylenediamine tetra acetic acid) using a polytron.homogenizer [manufactured by Kinematika, Germany], and centrifuged at 100,000×G for 40 min. The precipitated fraction was suspended in buffer B (50 mM Tris-HCl (pH 7.4), 0.02% bovine serum albumin, 2 μg/mL chymostatin, 40 μg/mL bacitracin, 40 μg/mL APMSF, 3 mM MgCl2), which was then cryopreserved (−80° C.) as a receptor specimen.
Buffer B (50 μL) was added to a 96 well microassay plate (CORNING). Thereto was added 50 μL of membrane preparation suspended in buffer B at 250 μg/mL. A measurement buffer (50 μL) containing 2% dimethyl sulfoxide was added to examine total binding; 4 μM unlabeled SP (50 μL) diluted with a measurement buffer containing 2% dimethyl sulfoxide was added to examine non-specific binding; and 50 μL of a test compound (containing 2% dimethyl sulfoxide) diluted with a measurement buffer was added to examine binding inhibitory activity of the test compound. In addition, […] ^125I-BHSP solution (50 μL) was added to each well.
After reaction at 25° C. for 30 min, the cells were rapidly filtered through a GF/C filter plate (PerkinElmer) using a cell harvester (manufactured by PerkinElmer) to quench the reaction, and washed 10 times with 250 μL of 50 mM tris-HCl buffer (pH 7.4) containing 0.02% bovine serum albumin. The GF/C filter plate was dried, MicroScinti 0 (20 μL) was added, and the radioactivity was measured with TopCount (manufactured by PerkinElmer). The GF/C filter plate was immersed in 0.3% polyethylene imine for one day before use.
Specific binding is a value obtained by subtracting nonspecific binding from total binding. The binding inhibitory activity of a test compound is shown by a ratio of a value obtained by subtracting a measurement value with addition of a test compound from the total binding, relative to specific binding.
The antagonistic activity of the compounds obtained in the Examples was determined as a concentration necessary for causing 50% inhibition (IC50 value) under the above-described conditions, and the results shown in Table 34 were obtained.
The radio ligand means substance P labeled with [^125I].

Row | melting point [°C] | IC50 [1] [nM] | Compound
1 | 209 to 211 | – | Cc1cc(F)ccc1[C@@H]1CN(C(C)(C)C(N)=O)CC[C@H]1C(=O)N(C)Cc1cc(C(F)(F)F)cc(C(F)(F)F)c1 (relative stereo) (as salt: hydrochloride) [Example 113, (3R*,4R*)-1-(2-amino-1,1-dimethyl-2-oxoethyl)-N-[3,5-bis(trifluoromethyl)benzyl]-3-(4-fluoro-2-methylphenyl)-N-methylpiperidine-4-carboxamide monohydrochloride]
2 | 234 to 236 | – | Cc1cc(F)ccc1[C@@H]1CN(C(C)CO)CC[C@H]1C(=O)N(C)Cc1cc(C(F)(F)F)cc(C(F)(F)F)c1 (relative stereo) (as salt: hydrochloride) [Example 120, (3R*,4R*)—N-[3,5-bis(trifluoromethyl)benzyl]-3-(4-fluoro-2-methylphenyl)-1-(2-hydroxy-1-methylethyl)-N-methylpiperidine-4-carboxamide monohydrochloride]
3 | 192 to 193 | 0.06 | Cc1cc(F)ccc1[C@@H]1CN(C2=CC(=O)CC2)CC[C@H]1C(=O)N(C)Cc1cc(C(F)(F)F)cc(C(F)(F)F)c1 (relative stereo) [Example 118, (3R*,4R*)—N-[3,5-bis(trifluoromethyl)benzyl]-3-(4-fluoro-2-methylphenyl)-N-methyl-1-(3-oxocyclopent-1-en-1-yl)piperidine-4-carboxamide]
4 | 170 to 171 | 0.04 | CCS(=O)(=O)N1CC[C@@H](C(=O)N(C)Cc2cc(C(F)(F)F)cc(C(F)(F)F)c2)[C@H](c2ccc(F)cc2C)C1 (relative stereo) [Example 132, (3R*,4R*)—N-[3,5-bis(trifluoromethyl)benzyl]-1-(ethylsulfonyl)-3-(4-fluoro-2-methylphenyl)-N-methylpiperidine-4-carboxamide]
5 | 151 to 153 | 0.078 | CCOCCS(=O)(=O)N1CC[C@@H](C(=O)N(C)Cc2cc(C(F)(F)F)cc(C(F)(F)F)c2)[C@H](c2ccc(F)cc2C)C1 (relative stereo) [Example 138, (3R*,4R*)—N-[3,5-bis(trifluoromethyl)benzyl]-1-[(2-ethoxyethyl)sulfonyl]-3-(4-fluoro-2-methylphenyl)-N-methylpiperidine-4-carboxamide]
6 | 142 to 144 | 0.055 | Cc1cc(F)ccc1[C@@H]1CN(S(=O)(=O)N(C)C)CC[C@H]1C(=O)N(C)Cc1cc(C(F)(F)F)cc(C(F)(F)F)c1 (relative stereo) [Example 142, (3R*,4R*)—N-[3,5-bis(trifluoromethyl)benzyl]-1-[(dimethylamino)sulfonyl]-3-(4-fluoro-2-methylphenyl)-N-methylpiperidine-4-carboxamide]

Continued, compound first:

Row | Compound | melting point [°C] | IC50 [1] [nM]
7 | Cc1cc(F)ccc1[C@@H]1CN(S(=O)(=O)CCN2CCOCC2)CC[C@H]1C(=O)N(C)Cc1cc(C(F)(F)F)cc(C(F)(F)F)c1 (relative stereo) (as salt: hydrochloride) [Example 139, (3R*,4R*)—N-[3,5-bis(trifluoromethyl)benzyl]-3-(4-fluoro-2-methylphenyl)-N-methyl-1-[(2-morpholin-4-ylethyl)sulfonyl]piperidine-4-carboxamide monohydrochloride] | 196 to 198 | –
8 | Cc1ccccc1[C@@H]1CN(C(=O)C2CCN(C(=O)CO)CC2)CC[C@H]1C(=O)N(C)Cc1cc(C(F)(F)F)cc(C(F)(F)F)c1 (relative stereo) [Example 16, (3R*,4R*)—N-[3,5-bis(trifluoromethyl)benzyl]-1-[(1-glycoloylpiperidin-4-yl)carbonyl]-N-methyl-3-(2-methylphenyl)piperidine-4-carboxamide] | 173 to 174 | –
9 | Cc1cc(F)ccc1[C@@H]1CN(C2=CC(=O)C(C)(C)CC2)CC[C@H]1C(=O)N(C)Cc1cc(C(F)(F)F)cc(C(F)(F)F)c1 (relative stereo) [Example 119, (3R*,4R*)—N-[3,5-bis(trifluoromethyl)benzyl]-1-(4,4-dimethyl-3-oxocyclohex-1-en-1-yl)-3-(4-fluoro-2-methylphenyl)-N-methylpiperidine-4-carboxamide] | 137 to 138 | 0.06
10 | Cc1cc(F)ccc1[C@@H]1CN(S(=O)(=O)c2ccccn2)CC[C@H]1C(=O)N(C)Cc1cc(C(F)(F)F)cc(C(F)(F)F)c1 (relative stereo) [Example 144, (3R*,4R*)—N-[3,5-bis(trifluoromethyl)benzyl]-3-(4-fluoro-2-methylphenyl)-N-methyl-1-(pyridin-2-ylsulfonyl)piperidine-4-carboxamide] | 187 to 189 | 0.045
11 | Cc1cc(F)ccc1[C@H]1CN(CC(N)=O)CC[C@@H]1C(=O)N(C)[C@@H](C)c1cc(C(F)(F)F)cc(C(F)(F)F)c1 [Example 156, (3S,4S)-1-(2-amino-2-oxoethyl)-N-{(1S)-1-[3,5-bis(trifluoromethyl)phenyl]ethyl}-3-(4-fluoro-2-methylphenyl)-N-methylpiperidine-4-carboxamide] | 161 to 164 | 0.024
12 | Cc1cc(F)ccc1[C@H]1CN(S(=O)(=O)C2CC2)CC[C@@H]1C(=O)N(C)[C@@H](C)c1cc(C(F)(F)F)cc(C(F)(F)F)c1 [Example 162, (3S,4S)—N-{(1S)-1-[3,5-bis(trifluoromethyl)phenyl]ethyl}-1-(cyclopropylsulfonyl)-3-(4-fluoro-2-methylphenyl)-N-methylpiperidine-4-carboxamide] | 154 to 156 | 0.081
